According to patent publication US20250092395A1, “A GLUN2D INHIBITOR FOR USE IN THE TREATMENT OR RELAPSE PREVENTION OF A DEPRESSIVE EPISODE” (priority 2022, published 2025):
“Also recorded” adds a separate entry of the source. Counter-ions that a name gives are not always drawn.

Columns and labels:
CDM mice = assay: Nose-poke sucrose preference test in CDM mice; format: in vivo; conditions: CDM mice, POST1 and POST2 nights
Excerpt: Behavioral Readout: After the treatment intervention, animals were either tested in an additional swim session (test day) to measure immobility time or tested in the InteliCage using the Nose-pokes sucrose preference test. For the assessment of the immobility time, mice were videotaped and two independent raters who were blinded to the experimental group analyzed the videos. Immobility time was defined as the cumulative time that the animals spend stationary with only enough movements of the tails or the forepaws to keep the head above the water surface. No distance is actively travelled except for passive floating, no directed movement of the front paws observed and the body of the animal mostly oriented parallel to the walls of the cylinder.
The IntelliCage system (TSE Systems) allows simultaneous analysis of spontaneous and exploratory behavior, activity pattern, and drinking preference of up to 16 group-housed mice implanted with radio-frequency identification (RFID) transponders. The unit consists of an open common space with 4 red shelters in the center and 4 recording corners. Mice have free access to food in the middle of the IntelliCage, water is available in the corners behind remote-controlled guillotine doors. Each corner is equipped with 2 drinking bottles and permits the visit of only one mouse at the same time. The scored parameters—the nosepokes toward the doors and the licks on the bottles—were monitored by a PC-based tracking software (IntelliCage Plus, TSE Systems). Initially, the mice were allowed to adapt to the IntelliCage for at least 7 days with water available ad libitum in all corners. Then for 3 days the animals were habituated to the sucrose taste: in each corner one of the bottles was filled with 1% sucrose solution and the other one with water. Both doors in the corner were open allowing free choice between the bottles. Next, a nosepoke adaptation period was carried out, where all doors were closed and the mice had to perform a nosepoke to open them. The opened door closes automatically after 5 s of drinking. In all tasks involving sucrose-filled bottles, the positions of the bottles were exchanged every 24 h. The Nosepoke SPT protocol was used (see Alboni et al.) for measurement of sucrose preference with gradually increasing effort (number of nosepokes) to reach the sucrose bottles for a short period of time (12 h). In this paradigm each door opens in response to a nosepoke and closes after 5 s licking. The number of nosepokes needed to open a door to a side with a sucrose containing bottle gradually increases (1, 2, 3, 4, 5, 6, 8, 10, 12, 16, 20, 24) after every 8 sucrose licking sessions. For each bottle the number of licks was recorded and the averaged sucrose preference was calculated as percentage of the total number of licks.

[1] = test system: CA3-CA1 synapse in hippocampal brain slices of CDM mice; assay: aLTP/aLTD inducibility in hippocampal brain slices of CDM mice after in vivo treatment; conditions: for stress-induced LTP blockade, reversal: NAB-14 in vivo
Experimental: Animals were preoxygenated in a 100% oxygen atmosphere for 5 min before cervical dislocation and decapitated according to national and institutional guidelines. Transverse 300 […] were cut from hippocampus with a Vibratome (VT1200, Leica, Japan). Slices were prepared in artificial cerebrospinal fluid (ACSF) containing (in mmol/I): 125 NaCl, 25 NaHCO3, 1.25 NaH2PO4, 2.5 KCL, 1 MgCl2, 27 Glucose, 2 CaCl2) bubbled with carbogen (95% O2, 5% CO2).
After 20 min resting time at 35° C., slices were kept at room temperature in aCSF and transferred into the recording chamber (volume approx. 2-3 ml) and continuously superfused with aCSF (rate approx. 5-10 ml/min-). Differential interference contrast video microscopy was used to identify location of CA1 pyramidal neurons (Zeiss Axioskop 2 FS plus, Zeiss Microscopy, Germany). Beside optical identification neurons were classified according to their characteristic firing frequency adaptation to long depolarising current pulses. Borosilicate glass tubes (2.0 mm outer diameter, 0.5 mm wall thickness; Hilgenberg, Germany) were used to pull patch pipettes. Pipettes with a resistance of 5-10 MΩ were used and series resistance of 10-50 MΩ was compensated by bridge balance. Patch pipettes were filled with an internal solution containing (in mM) for EPSP-measurements: 132K-gluconate, 20KCL, 2MgCl2, 10Hepes, 0.1EGTA, 4 Na2ATP, 0.3NaGTP. PH was adjusted to 7.2 with KOH. For current measurements: 135Csgluconate, 2CsCl, 5 QX314, 10 Hepes, 10EGTA, 2MgCl2, 2Na2ATP, 2TEACI, pH was adjusted to 7.2 with HCl. Osmolarity (280-300 mosmol/1) was controlled at the beginning of each experimental day with Osmomat (Gonotec GmbH, Germany).
A stimulation pipette (patch pipette with 1-3 MΩ resistance when filled with internal solution) was placed superficially in the stratum radiatum of the CA1 region in approximately […] distance to the pyramidal cell layer. Subthreshold excitatory postsynaptic potentials (EPSPs, 2 7 mV) were evoked by Schaffer collateral stimulation with voltage pulses of 10-80 V (frequency of 0.1 Hz, duration of 200 μs) using a stimulus isolator (Model 2100 Isolated pulse stimulator, Carlsborg, U.S.A.). Resting membrane potentials were between −75 and −65 mV and holding potential was −70 mV. 50 ms current test pulses (leading to 5-10 mV hyperpolarization) were applied to control input and series resistances after every 10th EPSP. EPSPs were combined with APs triggered by short (3 ms) current application of 900 pA via the patch-clamp electrode. EPC-10 amplifiers (HEKA, Germany) were used and signals were filtered at 5 kHz. Patchmaster NEXT software (Version 1.2, HEKA, Germany) was used for data acquisition and experiments were performed at room temperature.
aLTP: Five EPSPs and five postsynaptic APs were paired at 100 Hz with a 5 ms delay (AP after EPSP). Five of these bursts of synchronized EPSP→AP pairs were applied at theta frequency (5 Hz), followed by an interval of 10 sec and 4 more theta blocks, resulting in 125 EPSP/AP pairings.
aLTD: 360 postsynaptic APs were pared with 360 EPSPs with a delay of 20-30 ms between each AP/EPSP pairing at a frequency of 1 Hz. 1 Hz LTD: 600 EPSPs were elicited at a frequency of 1 Hz whilst CA1 pyramidal cell membrane potential was hold at −60 mV.
Long-term plasticity or molecular analyses were assessed as described above after the induction phase of the CDM and the specific treatment.
EPSP measurement: For baseline measurement, the mean amplitudes of 30 consecutive EPSPs before the induction protocol were calculated. 25 min after LTP induction the mean amplitude of 30 consecutive EPSPs was calculated and compared to the baseline of the same measurement. Changes of EPSP amplitudes were expressed as percentages of the baseline measurement and analysed for each experimental group applying a two-tailed Wilcoxon test. The differences between separate experimental groups were assessed using the Mann-Whitney test, not assuming normal distribution. […]

[2] = test system: CA3-CA1 synapse, CA1 pyramidal neurons in hippocampal brain slices; assay: LTP/LTD protocols and wash-in in brain slices of unstressed mice, substance in bathing solution; format: cell-based; conditions: for LTP inducibility, associative LTP protocol (aLTP): bath with picrotoxin, R,S-ketamine 10 μM, S-ketamine 5 μM
[3] = test system: NMDAR currents in somatostatin positive Interneurons (SOM); assay: NMDAR currents in voltage-clamp recordings, SOM interneurons; conditions: +40 mV, CNQX, bath application 10 μM
[4] = unstressed mice, NAB-14 in bathing solution
[5] = R,S-ketamine injected shortly before each swim session in the CDM

## CCN(CC)C(=O)Oc1ccc(C(=O)Nc2cccc3cc[nH]c23)cc1 [NAB-14]
CDM mice; NAB (5 μM as printed) injection
  sucrose preference: fully reestablished
[1]; CDM mice, high dose: 10 mg/kg, 10 μM, 10 mg/kg
  stress-induced LTP blockade, reversal: completely; also recorded: fully reversed
[1]; CDM mice, high dose: 10 mg/kg, 10 μM, listed as NAB, 10 mg/kg
  stress-induced LTP blockade, reversal: fully rehabilitated LTP inducibility
[1]; CDM mice, low dose: 5 mg/kg, 5 μM
  stress-induced LTP blockade, reversal: partially
[1]; CDM mice, previous NAB-14 treatment
  EPSP slope and decay changes found in CDM: effectively be reversed; also recorded: completely reversing slope increase and decay changes
[2]; [4]
  EPSP amplitude after aLTD stimulation: strongly increased the EPSP amplitude; also recorded: significant increase
  basal EPSP-amplitude / synaptic transmission: did not change synaptic transmission; also recorded: did not affect basal EPSP-amplitude
[2]; unstressed mice, NAB-14 in bathing solution, vs control IiLTP
  IiLTP induced increase of EPSP amplitude: increased IiLTP; also recorded: enhance IiLTP induced increase of EPSP amplitude significantly
[3]
  amplitude of NMDAR currents in SOM interneurons: significantly reduced; also recorded: reduce the amplitude of NMDAR currents in SOMs

## CNC1(c2ccccc2Cl)CCCCC1=O (centres unmarked) [R,S-ketamine, R,S-Ketamine hydrochloride]
CDM mice; single R,S-ketamine injection, hydrochloride
  sucrose preference: renormalized; also recorded: completely reestablished
[1]; CDM mice, R,S-ketamine injection i.p. after CDM induction, hydrochloride
  stress-induced facilitation of LTD (aLTD, EPSP amplitude min 25 to 30): fully restored; also recorded: reversed this inducibility
[1]; CDM mice, single R,S-ketamine injection i.p. after CDM induction, hydrochloride
  stress-induced blockade of LTP inducibility (aLTP, EPSP amplitude min 25 to 30): fully restored; also recorded: completely reestablishing stress-induced changes
[1]; [5]
  stress-induced aLTD facilitation: weaker effect
  stress-induced aLTP blockade: prevented the stress-induced aLTP blockade
[2]
  LTD induction: could be blocked
  paired-pulse ratio (PPR, EPSP2/EPSP1) before and after weak-aLTP (li-LTP) induction: unchanged
[2]; hydrochloride
  EPSP amplitude after associative LTD protocol (aLTD, NMDAR-independent): unaffected; also recorded: neither R,S-ketamine (10 μM) nor S-ketamine (5 μM) had an effect
  LTD inducibility, non-associative 1 Hz LTD protocol (NMDAR-dependent): fully blocked; also recorded: abolished
  LTP inducibility, non-associative 100 Hz LTP protocol: significant blockade of inducibility of LTP
  aLTP induction: neither K nor SK blocked aLTP induction; also recorded: not affected
  low intensity LTP (IiLTP) induction: blocked LTP induction; also recorded: blockade of LTP induction
  low intensity LTP (IiLTP), EPSP amplitude: significant increase in EPSP amplitude; also recorded: even enhanced LTP induction
[2]; unstressed mice, hydrochloride
  LTP inducibility, associative LTP protocol (aLTP): significant blockade of inducibility of LTP
[2]; unstressed mice, listed as K, hydrochloride
  LTP inducibility, associative LTP protocol (aLTP): complete inhibition of LTP
[3]; hydrochloride
  amplitude of NMDAR currents in SOM interneurons: significantly stronger than in CA1 pyramidal cells; also recorded: significantly more pronounced in SOMs than in PCs
[3]; listed as Ketamine, hydrochloride
  amplitude of NMDAR currents in SOM interneurons: significantly more pronounced inhibitory effect
